The results in this text go back to patent US20100113368A1, “CHOLESTEROL LOWERING PROTEIN HYDROLYSATES” (priority 2007, published 2010).

Marks after values point to notes of the source that are not given here.

The subject of assay [1] is hypercholesterolemic rat model. Description: Hypocholesterolemic effects of R-P-P-R, K-P-P, L-arginine and Ezetimib in Fisher F344 rats (Example 6). It counts as in vivo. To be noted: for Effect on non-HDL cholesterol (VLDL-cholesterol+LDL-cholesterol) as compared to the control group / Effect on plasma HDL-cholesterol as compared to the control group / Effect on plasma total cholesterol as compared to the control group: in words, 8 days orally, 100 mg/kg BW (Ezetimib 1 mg/kg BW); for HDL cholesterol (plasma) / Total cholesterol (plasma) / non HDL cholesterol (plasma): male F344 rats on atherogenic diet, orally for 8 days, peptides and L-arginine 100 mg/kg BW, Ezetimib 1 mg/kg BW, mean ± SD; for non HDL cholesterol (plasma): difference between total and HDL cholesterol. The method, then:
In this experiment the effects of the chemically synthesized peptides R-P-P-R and K-P-P, the free amino acid L-arginine and the potent and selective cholesterol absorption inhibitor Ezetimib (Ezetrol, MSD Germany) were tested on plasma cholesterol levels in the hypercholesterolemic rat model.
Male Fisher rats (F344) from Charles River (Sulzfeld, Germany), weighing 65-96 g were housed individually with free access to water and feed, with an alternating 12-hour light-dark cycle. The animals were fed a rodent atherogenic diet high in cholesterol and fat similar to the procedure described in Example 5. After 2 weeks of adaptation to the diet the rats were randomized according to body weight into five experimental groups of 10 animals each. The five groups were treated orally every morning for 8 days with either water (control group) or with R-P-P-R, K-P-P and L-arginine at a dose of 100 mg/kg body weight (BW) or with Ezetimib at a dose of 1 mg/kg BW while continuing the aetherogenic diet. There was no difference in feed consumption over the whole experiment. The day before the last administration, all animals were dosed orally in the evening and deprived of food for the last 6 hours but allowed free access to water. At day 8 the fasted rats were treated again orally in the morning and after two hours the animals were sacrificed by withdrawing blood from the vena Cava under Isoflurane anesthesia. Blood was collected into tubes containing EDTA as an anticoagulant. Plasma was prepared from the blood by immediate centrifugation at 1600 g for 10 minutes at 4° C. Assays of plasma cholesterol and HDL-cholesterol (precipitation method) were determined enzymatically on a Hitachi 912 automatic analyzer (Roche Diagnostica, Switzerland). Non-HDL cholesterol was calculated by difference between total cholesterol and HDL cholesterol. All data are expressed as means±standard deviation (SD) for animals in each diet group, with n being the number of rats.

Assay [2] has as its system hypercholesterolemic rat model. Description: Hypocholesterolemic effects of peptide R-P-P-R-S in Fisher F344 rats (Example 5). It is filed as in vivo. The settings on record: male F344 rats on atherogenic diet, 100 mg/kg BW orally for 7 days, mean ± SD. The method, then: In this experiment the effects of the chemically synthesized […] R-P-P-R-S was tested on plasma cholesterol levels in the hypercholesterolemic rat model.
In short male Fisher rats (F344) from Charles River (Sulzfeld, Germany), weighing 65-96 g were housed individually with free access to water and feed, with an alternating 12-hour light-dark cycle. The animals were fed a rodent atherogenic diet high in cholesterol and fat for the 2 weeks preceding the treatment. The macro-nutrient composition of the diet was as follows (g/100 g anhydrous mix): protein 20.8; fiber 4.2; fat 15; carbohydrate 48. The diet also contained 1.25 wt % cholesterol, 0.5 wt % sodium cholate and a standard vitamin and mineral mix, prepared according to rat nutritional requirements. The main fats consisted of cacoa butter (7.5 wt %) and soja oil (4.35 wt %). After 2 weeks of adaptation to the diet the rats were randomized according to body weight into two experimental groups of 10 animals. The two groups were treated orally every morning for 7 days with either water (control group) or peptide R-P-P-R-S, at a dose of 100 mg/kg body weight (BW) while continuing the aetherogenic diet. There was no difference in feed consumption over the whole experiment. The day before the last administration, all animals were dosed orally in the evening and deprived of food overnight (14 hours) but allowed free access to water. At day 7 the fasted rats were treated again orally in the morning and after two hours the animals were sacrificed by withdrawing blood from the vena Cava under Isoflurane anesthesia. Blood was collected into tubes containing EDTA as an anticoagulant. […] Assays of plasma cholesterol and HDL-cholesterol (precipitation method) were determined enzymatically on a Hitachi 912 automatic analyzer (Roche Diagnostica, Switzerland). Non-HDL cholesterol was calculated by difference between total cholesterol and HDL cholesterol. […] All data are expressed as means±standard deviation (SD) for animals in each diet group, with n being the number of rats. […]

On to `O=C1[C@H](CC[C@H](O)c2ccc(F)cc2)[C@@H](c2ccc(O)cc2)N1c1ccc(F)cc1` [Ezetimib, reference compound], for which, in assay [1], the “Effect on non-HDL cholesterol (VLDL-cholesterol+LDL-cholesterol) as compared to the control group” value is “prominent effects”, the “Effect on plasma HDL-cholesterol as compared to the control group” value is listed as “prominent effects”, the “Effect on plasma total cholesterol as compared to the control group” value is reported as “prominent effects” and the “HDL cholesterol (plasma)” value was determined as 0.51 ± 0.06 mmol/L. In addition, in assay [1], the “Total cholesterol (plasma)” value is 4.70 ± 0.93 mmol/L and the “non HDL cholesterol (plasma)” value is 4.19 ± 0.90 mmol/L.

In the case of `N=C(N)NCCC[C@H](N)C(=O)O` [L-arginine, reference compound], in assay [1], the “Effect on non-HDL cholesterol (VLDL-cholesterol+LDL-cholesterol) as compared to the control group” value is recorded as “had no effect”, the “Effect on plasma HDL-cholesterol as compared to the control group” value is “had no effect”, the “Effect on plasma total cholesterol as compared to the control group” value is “had no effect” and the “HDL cholesterol (plasma)” value was 0.33 ± 0.05 mmol/L. In assay [1], the “Total cholesterol (plasma)” value is on record as 7.66 ± 1.08 mmol/L and the “non HDL cholesterol (plasma)” value came out at 7.32 ± 1.08 mmol/L.

With K-P-P [KPP], in assay [1], the “Effect on non-HDL cholesterol (VLDL-cholesterol+LDL-cholesterol) as compared to the control group” value is listed as “tended to lowered”, the “Effect on plasma HDL-cholesterol as compared to the control group” value is “significantly increased”, the “Effect on plasma total cholesterol as compared to the control group” value is recorded as “tended to lowered” and the “HDL cholesterol (plasma)” value came out at 0.37 ± 0.04 mmol/L. Besides, in assay [1], the “Total cholesterol (plasma)” value is recorded as 6.82 ± 1.42 mmol/L and the “non HDL cholesterol (plasma)” value was found to be 6.45 ± 1.44 mmol/L.

Regarding “R-P-P-R (RPPR) [chemically synthesized peptide Arg-Pro-Pro-Arg]”, in assay [1], the “Effect on non-HDL cholesterol (VLDL-cholesterol+LDL-cholesterol) as compared to the control group” value is on record as “significantly lowered”, the “Effect on plasma HDL-cholesterol as compared to the control group” value is given as “tended to increase”, the “Effect on plasma total cholesterol as compared to the control group” value is given as “significantly lowered” and the “HDL cholesterol (plasma)” value stood at 0.35 ± 0.04 mmol/L. In assay [1], the “Total cholesterol (plasma)” value is 5.28 ± 0.81 mmol/L and the “non HDL cholesterol (plasma)” value stood at 4.94 ± 0.81 mmol/L.

Take “R-P-P-R-S (RPPRS) [chemically synthesized peptide Arg-Pro-Pro-Arg-Ser]”: in assay [2] (fasted, 2 h after last dose), the “HDL cholesterol (plasma)” value is 0.36 ± 0.10^b mmol/L and the “Total cholesterol (plasma)” value is given as 2.9 ± 0.4^b mmol/L. In assay [2] (difference between total and HDL cholesterol), the “non HDL cholesterol (plasma)” value is 2.5 ± 0.5^b mmol/L.
